Consider twelve compounds from ChEMBL document CHEMBL1138261, “Probing binding requirements of type I and type II isoforms of inosine monophosphate dehydrogenase with adenine-modified nicotinamide adenine dinucleotide analogues” (J Med Chem, 2007).

Molecules are shown by their SMILES.

In general, Ki refers to the equilibrium dissociation constant of an inhibitor or competing ligand from its target. Low readings indicate higher affinity, high ones lower affinity. For orientation: IC50 means the midpoint of a concentration-inhibition curve. High values mean weaker potency in that assay, low ones greater potency in that assay.

In experiment [1] the target is Inosine-5'-monophosphate dehydrogenase 1 (Homo sapiens, UniProt P20839). Nature of the experiment: Inhibition of human IMPDH type 1.
Sequence of Inosine-5'-monophosphate dehydrogenase 1 (P20839 whole entry): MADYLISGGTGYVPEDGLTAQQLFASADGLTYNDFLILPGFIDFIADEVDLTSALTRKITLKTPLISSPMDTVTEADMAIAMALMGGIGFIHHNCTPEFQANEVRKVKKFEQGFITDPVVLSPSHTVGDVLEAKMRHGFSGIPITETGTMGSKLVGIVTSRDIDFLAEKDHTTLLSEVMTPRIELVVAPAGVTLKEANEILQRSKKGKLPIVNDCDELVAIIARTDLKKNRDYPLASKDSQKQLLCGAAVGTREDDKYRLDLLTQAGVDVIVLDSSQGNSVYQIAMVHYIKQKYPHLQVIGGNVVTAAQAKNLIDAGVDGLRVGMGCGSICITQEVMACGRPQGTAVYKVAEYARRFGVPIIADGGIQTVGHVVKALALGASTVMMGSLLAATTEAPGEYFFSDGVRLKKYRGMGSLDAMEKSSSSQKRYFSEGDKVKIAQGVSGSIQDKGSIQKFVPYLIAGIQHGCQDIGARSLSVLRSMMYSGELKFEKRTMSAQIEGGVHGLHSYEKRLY
Experiment [2] has as its target Inosine-5'-monophosphate dehydrogenase 2 (Homo sapiens, UniProt P12268). Nature of the experiment: Inhibition of human IMPDH type 2.
In experiment [3] the target is Malate dehydrogenase (Sus scrofa). Nature of the experiment: Inhibition of porcine heart malate dehydrogenase.
Experiment [4] has as its target L-lactate dehydrogenase (Bos taurus). Nature of the experiment: Inhibition of bovine heart lactate dehydrogenase.
A short description of experiment [5]: Inhibition of horse liver alcohol dehydrogenase. The arrangement: species or system Equus caballus.
The test system of a further experiment is K562. Nature of the experiment: Antiproliferative activity against human K562 cells after 72 hrs. The experiment is classed as functional, cell-based. Particulars: K562, 72 h.

For `NC(=O)c1csc([C@@H]2O[C@H](COP(=O)(O)OP(=O)(O)OC[C@H]3O[C@@H](n4cnc5c(N)nc(NCCc6ccccc6)nc54)[C@H](O)[C@@H]3O)[C@@H](O)[C@H]2O)n1`, the inhibition constant (Ki) in experiment [1] turned out to be 73 nM; in experiment [2], 255 nM. Moreover, the IC50 in experiment [3] was 12700 nM; in experiment [4] it was more than 50000 nM.
`NC(=O)c1csc([C@@H]2O[C@H](COP(=O)(O)OP(=O)(O)OC[C@H]3O[C@@H](n4cnc5c(N)nc(Nc6ccccc6)nc54)[C@H](O)[C@@H]3O)[C@@H](O)[C@H]2O)n1`: the Ki in experiment [1] was found to be 45 nM; in experiment [2] it was 153 nM. Besides, the 50% inhibitory concentration (IC50) in experiment [5], in experiment [3] and in experiment [4] was more than 50000 nM throughout.
For the compound `C=Cc1nc(N)c2ncn([C@@H]3O[C@H](COP(=O)(O)OP(=O)(O)OC[C@H]4O[C@@H](c5nc(C(N)=O)cs5)[C@H](O)[C@@H]4O)[C@@H](O)[C@H]3O)c2n1`, the results for the Ki in experiment [1] and in experiment [2] were 96 nM and 94 nM, respectively. The IC50 in experiment [5] was 39000 nM; in experiment [3], more than 50000 nM; in experiment [4], more than 50000 nM.
`NC(=O)c1csc([C@@H]2O[C@H](COP(=O)(O)OP(=O)(O)OC[C@H]3O[C@@H](n4cnc5c(N)ncnc54)[C@H](O)[C@@H]3O)[C@@H](O)[C@H]2O)n1` [TIAZOFURIN ADENINE DINUCLEOTIDE] showed an IC50 in the experiment with K562 of 12400 nM.
Consider `NC(=O)c1csc([C@@H]2O[C@H](COP(=O)(O)OP(=O)(O)OC[C@H]3O[C@@H](n4cnc5c(N)nc(I)nc54)[C@H](O)[C@@H]3O)[C@@H](O)[C@H]2O)n1`, for which the values for the Ki in experiment [1] and in experiment [2] were 19 nM and 84 nM, respectively. Further, the IC50 in experiment [3] and in experiment [4] was more than 50000 nM throughout.
Turning to `C#Cc1nc(N)c2ncn([C@@H]3O[C@H](COP(=O)(O)OP(=O)(O)OC[C@H]4O[C@@H](c5nc(C(N)=O)cs5)[C@H](O)[C@@H]4O)[C@@H](O)[C@H]3O)c2n1`, the inhibition constant Ki was 10 nM in experiment [1] and 49 nM in experiment [2]. For the same compound, the IC50 in experiment [5], in experiment [3] and in experiment [4] was more than 50000 nM each time.
`COc1c(C)c2c(c(O)c1CCOP(=O)(O)CP(=O)(O)OC[C@H]1O[C@@H](n3cnc4c(N)nc(-c5ccccc5)nc43)[C@H](O)[C@@H]1O)C(=O)OC2`: the figures for the Ki in experiment [1] and in experiment [2] were 66 nM and 108 nM, respectively. The IC50 in the experiment on K562 is 1100 nM; in experiment [5], more than 50000 nM; in experiment [3], 14300 nM; in experiment [4] it was more than 50000 nM.
`CCc1nc(N)c2ncn([C@@H]3O[C@H](COP(=O)(O)OP(=O)(O)OC[C@H]4O[C@@H](c5nc(C(N)=O)cs5)[C@H](O)[C@@H]4O)[C@@H](O)[C@H]3O)c2n1` registered a Ki in experiment [1] of 1 nM. Besides, the IC50 in experiment [5], in experiment [3] and in experiment [4] was more than 50000 nM throughout.
For the compound `COc1c(C)c2c(c(O)c1C/C=C(\C)CCC(=O)O)C(=O)OC2` [MYCOPHENOLIC ACID], the midpoint of inhibition in the experiment with K562, the IC50, lay at 7700 nM.
`NC(=O)c1csc([C@@H]2O[C@H](COP(=O)(O)OP(=O)(O)OC[C@H]3O[C@@H](n4cnc5c(N)nc(-c6ccccc6)nc54)[C@H](O)[C@@H]3O)[C@@H](O)[C@H]2O)n1`: the results for the Ki in experiment [1] and in experiment [2] were 20 nM and 143 nM, respectively. Besides, the IC50 in experiment [3] and in experiment [4] was more than 50000 nM each time.
Regarding `NC(=O)c1csc([C@@H]2O[C@H](COP(=O)(O)OP(=O)(O)OC[C@H]3O[C@@H](n4cnc5c(N)nc(NCc6ccccc6)nc54)[C@H](O)[C@@H]3O)[C@@H](O)[C@H]2O)n1`, the Ki in experiment [1] stood at 45 nM; in experiment [2] it was 169 nM. Besides, the values for the IC50 in experiment [3] and in experiment [4] were 30000 nM and more than 50000 nM, respectively.
In turn, `NC(=O)c1csc([C@@H]2O[C@H](COP(=O)(O)OP(=O)(O)OC[C@H]3O[C@@H](n4cnc5c(N)nc(N)nc54)[C@H](O)[C@@H]3O)[C@@H](O)[C@H]2O)n1` returned a Ki in experiment [1] of 7 nM. The IC50 in experiment [5], in experiment [3] and in experiment [4] was more than 50000 nM in each case.
